Key:
5-HT1B receptor = 5-HT1B receptor (Homo sapiens (Human), UniProt P28222); test: cAMP accumulation agonist assay at 5-HT1B; format: cell-based
Experimental: Functional Assay at 5-HT1B. Agonist activity at 5-HT1B was determined using a cAMP accumulation protocol at WuXi AppTec (Hong Kong) Limited according to their standard protocols. Briefly, stably transfected cells were plated in an OptiPlate-384 well plate, incubated at RT for 60 mins, and cAMP standard solution (800 nM, 10 μL) was added to the blank well. Then, 10 μL detection reagent was added to each well, the plate incubated for 60 mins at RT, and the plate read using EnVision.

[1] = Metabolic stability in rat liver microsomes (RLM); format: in vitro ADME; details: both sexes, rat, pooled rat liver microsomes, pH 7.4, NADPH
5-HT2B receptor = 5-HT2B receptor (Homo sapiens (Human), UniProt P41595); test: FLIPR Ca^2+ flux agonist assay at 5-HT2B; format: cell-based; details: HEK293
Experimental: (§1) Functional Assays at 5-HT2A, 5-HT2B, and 5-HT1A. Agonist activity at 5-HT2A, 5-HT2B, and 5-HT1A receptors was determined using a FLIPR Ca^2+ flux assay at WuXi AppTec (Hong Kong) Limited according to their standard protocols. Briefly, stably transfected cells expressing the receptor of interest (HEK293 for 5-HT2A and 5-HT2B; CHO cells for 5-HT1A) were grown and plated in a 384 well plate and incubated at 37° C. and 5% CO2 overnight. A solution of 250 mM probenecid in 1 mL FLIPR assay buffer was prepared fresh. This was combined with a fluorescent dye (Fluo-4 Direct™) to make a final assay concentration of 2.5 mM. […] The fluorescent dye was then added to the assay plate along with assay buffer to a final volume of 40 μL. The cell plate was incubated for 50 min at 37° C. and 5% CO2 and placed into the FLIPR Tetra along with the compound plate. 10p L of references and compounds were then transferred from the compound plate into the cell plate and the fluorescent signal was read.

5-HT1A receptor = 5-HT1A receptor (Homo sapiens (Human), UniProt P08908); test: FLIPR Ca^2+ flux agonist assay at 5-HT1A; format: cell-based; details: CHO cells
Experimental: as §1

[2] = Metabolic stability in human liver microsomes (HLM); format: in vitro ADME; details: both sexes, human, pooled human liver microsomes, pH 7.4, NADPH
Source text: HLM Stability. Pooled HLM from adult male and female donors (Corning 452117) were used.

[3] = Metabolic stability in mouse liver microsomes (MLM); format: in vitro ADME; details: mouse, pooled mouse liver microsomes, pH 7.4, MLM (CD-1), NADPH
Source text: MLM Stability Pooled MLM from CD-1 mice (BIOIVT M00501) were used.

5-HT2A receptor = 5-HT2A receptor (Homo sapiens (Human), UniProt P28223); format: cell-based; details: Ca^2+ flux, HEK293
Experimental: as §1

Alpha1A receptor = Alpha1A receptor (Homo sapiens (Human), UniProt P35348); test: FLIPR Ca^2+ flux agonist assay at Alpha1A; format: cell-based
Experimental: Disclosed compounds were tested for agonist activity at several adrenergic (Alpha1A and Alpha2A) and dopamine (D1 and D2) receptor subtypes using Ca^2+ flux functional assays, with the results summarized in Table 6. Selectivity for the 5-HT2A receptor over these other targets varied depending on the specific target and compound.
Functional Assays at Adrenergic and Dopamine Receptors. Agonist activity at Alpha1A, Alpha2A, D1, and D2 receptors was determined using a FLIPR Ca^2+ flux assay at WuXi AppTec (Hong Kong) Limited according to their standard protocols. Briefly, stably transfected cells expressing the receptor of interest were grown and plated in a 384 well plate and incubated at 37° C. and 5% CO2 overnight. A solution of 250 mM probenecid in 1 mL FLIPR assay buffer was prepared fresh. This was combined with a fluorescent dye (Fluo-4 Direct™) to make a final assay concentration of 2.5 mM. Compounds were diluted 1:3.16 for 10 points and 750 nL was added to a 384 well compound plate using ECHO along with 30 μL assay buffer. The fluorescent dye was then added to the assay plate along with assay buffer to a final volume of 40 μL. The cell plate was incubated for 50 min at 37° C. and 5% CO2 and placed into the FLIPR Tetra along with the compound plate. 10 μL of references and compounds were then transferred from the compound plate into the cell plate and the fluorescent signal was read.

Sprague Dawley rats = test: Forced swim test (FST) in rats; format: in vivo, rat; details: rat FST, 20 mg/kg SC at 23.5 h, 5 h and 1 h before test swim; average of 3 independent experiments
Experimental: Compound 1 induced antidepressant-like effects in the forced swim test (FST) in rats with a 23.5-h pre-treatment time (FIG. 2).
Animals. Male Sprague Dawley rats, aged 9-10 weeks, were used in this experiment. Animals were housed in groups of 2 under controlled temperature (22±3° C.) and relative humidity (30-70%) conditions, with 12-hour light/dark cycles, and with ad libitum food and water. This study was carried out in strict accordance with the requirements of the Committee for the Purpose of Control and Supervision of Experiments on Animals (CPCSEA), India. All efforts were made to minimize suffering.
Drugs and Drug Administration. Compound 1 was synthesized as described above. Desipramine HCl was commercially obtained. The test compound, saline vehicle, and the positive control desipramine were administered subcutaneously (SC), with doses calculated based on the freebase. Normal saline was used as the vehicle. All compounds were administered at a volume of 5 mL/kg. The test compound and vehicle were administered 0.5 h after the start of the training swim (Swim 1) and 23.5 h before the test swim (Swim 2). Desipramine was administered 3 times, at 23.5 h, 5 h, and 1 h before the test swim (Swim 2), each time at a dose of 20 mg/kg. Group size was n=10 per treatment.
Forced Swim Test (FST). […] Rats were handled for about 2 min daily for the 5 days prior to the beginning of the experimental procedure. On the first day of the experiment (i.e., Day 0), post randomization, training swim sessions (Swim 1) were conducted between 12:00 and 18:00 h with all animals by placing rats in individual glass cylinders (46 cm tall×20 cm in diameter) containing 23-25° C. water 30 cm deep for 15 minutes. At the conclusion of Swim 1, animals were dried with paper towels, placed in heated drying cages for 15 minutes, and then returned to their home cages. Animals were then administered the appropriate drug or vehicle treatment(s), as described above. For clarity, a compound administration time of 23.5 h before Swim 2 means 0.5 h after the start of Swim 1 and 0.25 h after the completion of Swim 1 (i.e., immediately after return to the home cage). On Day 1 (i.e., 24 h after start of Swim 1), animals performed the test swim (Swim 2) for a period of 5 min but otherwise under the same conditions as Swim 1. During all swim sessions, the water was changed between each animal.
Behavioral scoring was conducted by observers who were blind to the treatment groups. Animals were continuously observed during Swim 2 and the total time spent engaging in the following behaviors was recorded: immobile, swimming, and climbing. A rat was judged to be immobile when it remained floating in the water without struggling and was making only those movements necessary to keep its head above water. A rat was judged to be swimming when it made active swimming motions, more than necessary to merely maintain its head above water (e.g., moving around in the cylinder). A rat was judged to be climbing when it made active movements with its forepaws in and out of the water, usually directed against the walls.
Statistical Analysis. The data points shown represent the mean±standard error of the mean (SEM). Analysis was performed using GraphPad Prism 6. Comparisons between groups were performed using the one-way analysis of variance (ANOVA), followed by Dunnett's test for comparisons to vehicle.
Additional disclosed compounds were tested in the forced swim test (FST) in rats according to the procedure described in Example 35.

Chain of 5-HT2B receptor (P41595 whole entry, looked up): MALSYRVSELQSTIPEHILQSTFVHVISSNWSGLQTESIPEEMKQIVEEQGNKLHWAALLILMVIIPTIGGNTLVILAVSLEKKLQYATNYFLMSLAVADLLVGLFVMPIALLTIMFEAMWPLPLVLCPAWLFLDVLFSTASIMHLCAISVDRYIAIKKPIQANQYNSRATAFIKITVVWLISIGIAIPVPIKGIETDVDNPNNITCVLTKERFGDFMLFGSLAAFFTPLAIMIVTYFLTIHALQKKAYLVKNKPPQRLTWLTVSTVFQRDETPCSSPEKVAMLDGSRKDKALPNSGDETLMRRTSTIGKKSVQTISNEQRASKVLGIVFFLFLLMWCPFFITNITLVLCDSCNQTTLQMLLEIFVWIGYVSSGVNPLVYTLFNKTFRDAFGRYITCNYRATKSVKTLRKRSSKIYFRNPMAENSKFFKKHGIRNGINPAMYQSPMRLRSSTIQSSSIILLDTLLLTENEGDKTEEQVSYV
Chain of 5-HT1B receptor (P28222 whole entry, looked up): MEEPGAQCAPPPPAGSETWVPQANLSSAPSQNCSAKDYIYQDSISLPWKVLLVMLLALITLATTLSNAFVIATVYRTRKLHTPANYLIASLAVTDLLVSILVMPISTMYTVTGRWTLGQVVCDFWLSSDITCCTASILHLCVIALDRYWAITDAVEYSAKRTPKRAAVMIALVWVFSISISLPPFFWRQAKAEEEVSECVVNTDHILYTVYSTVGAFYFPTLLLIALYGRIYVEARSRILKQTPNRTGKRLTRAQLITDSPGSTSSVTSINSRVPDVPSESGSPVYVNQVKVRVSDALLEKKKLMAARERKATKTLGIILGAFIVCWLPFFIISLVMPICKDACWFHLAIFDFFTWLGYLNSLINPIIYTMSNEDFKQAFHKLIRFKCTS
Chain of Alpha1A receptor (P35348 whole entry, looked up): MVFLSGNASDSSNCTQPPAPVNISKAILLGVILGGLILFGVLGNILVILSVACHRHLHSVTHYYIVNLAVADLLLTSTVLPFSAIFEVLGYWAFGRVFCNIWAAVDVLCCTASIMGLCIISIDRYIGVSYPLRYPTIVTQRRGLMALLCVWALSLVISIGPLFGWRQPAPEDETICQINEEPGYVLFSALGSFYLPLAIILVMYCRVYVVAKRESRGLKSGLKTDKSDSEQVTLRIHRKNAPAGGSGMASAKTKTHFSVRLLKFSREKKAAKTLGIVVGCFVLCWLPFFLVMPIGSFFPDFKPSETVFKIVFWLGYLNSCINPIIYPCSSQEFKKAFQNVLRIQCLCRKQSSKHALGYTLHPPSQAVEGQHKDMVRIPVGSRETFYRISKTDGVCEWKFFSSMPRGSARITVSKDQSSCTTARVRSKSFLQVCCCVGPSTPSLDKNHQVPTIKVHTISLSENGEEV

Compound	5-HT1B % Act @ Max Dose (5-HT1B receptor) [%]	half-life at 1 μM [1] [min]	5-HT2B % Act @ Max Dose (5-HT2B receptor) [%]	5-HT1A % Act @ Max Dose (5-HT1A receptor) [%]	half-life at 1 μM [2] [min]	half-life at 1 μM [3] [min]	5-HT2A % Act @ Max Dose (5-HT2A receptor) [%]	Alpha 1A % Act @ Max Dose (Alpha1A receptor) [%]	Time Immobile (Sprague Dawley rats) [s]
CCN(CC)C(=O)[C@@H]1C=C2c3cccc4[nH]cc(c34)C[C@H]2N(CCc2ccccn2)C1 [Compound 23, (6aR,9R)-N,N-diethyl-7-(2-(pyridin-2-yl)ethyl)-4,6,6a,7,8,9-hexahydroindolo[4,3-fg]quinoline-9-carboxamide]	83.68	4.2	12.50	46.19	7.2	1.8	85.397		
CCN(CC)C(=O)[C@@H]1C=C2c3cccc4[nH]cc(c34)C[C@H]2N(CC2CC2)C1 [Compound 13, (6aR,9R)-N,N-diethyl-7-(Cyclopropylmethyl)-4,6,6a,7,8,9-hexahydroindolo[4,3-fg]quinoline-9-carboxamide]	90.43	27.7	91.75	83.08	21.1	3.7	92.60	80.79	
CCN(CC)C(=O)[C@@H]1C=C2c3cccc4[nH]cc(c34)C[C@H]2N(CCc2ccc(OC)cc2)C1 [Compound 21, (6aR,9R)-N,N-diethyl-7-(4-methoxyphenethyl)-4,6,6a,7,8,9-hexahydroindolo[4,3-fg]quinoline-9-carboxamide]	79.13	4.3	1.73	8.2	3.8	1.9	51.23		
CCN(CC)C(=O)[C@@H]1C=C2c3cccc4[nH]cc(c34)C[C@H]2N(Cc2ccccn2)C1 [Compound 22, (6aR,9R)-N,N-diethyl-7-(pyridin-2-ylmethyl)-4,6,6a,7,8,9-hexahydroindolo[4,3-fg]quinoline-9-carboxamide]	89.15	13.2	7.74	57.33	23.8	9.2	64.47		
CCN(CC)C(=O)[C@@H]1C=C2c3cccc4[nH]cc(c34)C[C@H]2N(Cc2ccccc2O)C1 [Compound 16, (6aR,9R)-N,N-diethyl-7-(2-hydroxybenzyl)-4,6,6a,7,8,9-hexahydroindolo[4,3-fg]quinoline-9-carboxamide]	90.1	2.2	26.497	22.29	4.9	1.3	62.05		
CCN(CC)C(=O)[C@@H]1C=C2c3cccc4[nH]cc(c34)C[C@H]2N(Cc2ccc(OC)cc2)C1 [Compound 19, (6aR,9R)-N,N-diethyl-7-(4-methoxybenzyl)-4,6,6a,7,8,9-hexahydroindolo[4,3-fg]quinoline-9-carboxamide]	71.08	10	2.44	−0.65	16.8	7.2	70.54		
CNCCCN1c2ccccc2CCc2ccccc21 [Desipramine, reference compound]									60.93
CCN(CC)C(=O)[C@@H]1C=C2c3cccc4[nH]cc(c34)C[C@H]2N(CCc2cccc(OC)c2)C1 [Compound 20, (6aR,9R)-N,N-diethyl-7-(3-methoxyphenethyl)-4,6,6a,7,8,9-hexahydroindolo[4,3-fg]quinoline-9-carboxamide]	34.59	1.2	3.60	3.85	2.1	0.9	77.19		
CCN(CC)C(=O)[C@@H]1C=C2c3cccc4[nH]cc(c34)C[C@H]2N(Cc2cccc(OC)c2)C1 [Compound 18, (6aR,9R)-N,N-diethyl-7-(3-methoxybenzyl)-4,6,6a,7,8,9-hexahydroindolo[4,3-fg]quinoline-9-carboxamide]	83.31	5.3	4.69	28.93	13.6	2.6	61.09		
